This passage reports IC50 results from patent US8389764B2, “Urea and sulfamide derivatives as inhibitors of TAFIa” (Sanofi, priority 2006, dated 2013).

SMILES strings stand for the structures. Numbered stars: 1 amine (or outer) side, 2 acyl side, 3 side chain; on linkers, the order of the positions; unused ones are H or OH. Square brackets hold non-standard residues; d marks the D form. Peptide text beside a SMILES is read from it. * marks the point of attachment. ξ: configuration not given here. dCha = N[C@H](CC1CCCCC1)C(=O)O; Phe(ol) = N[C@H](CO)Cc1ccccc1; Cbz = O=C(OCc1ccccc1)*; CO = O=C([*:1])[*:2]; ξV = CC(C)C(N)C(=O)O

The assay has as its target T1, TAFIa (Homo sapiens, UniProt Q96IY4).
T1 construct: purchased American Diagnostica 874TAFIA
T1 sequence (Q96IY4 115-423): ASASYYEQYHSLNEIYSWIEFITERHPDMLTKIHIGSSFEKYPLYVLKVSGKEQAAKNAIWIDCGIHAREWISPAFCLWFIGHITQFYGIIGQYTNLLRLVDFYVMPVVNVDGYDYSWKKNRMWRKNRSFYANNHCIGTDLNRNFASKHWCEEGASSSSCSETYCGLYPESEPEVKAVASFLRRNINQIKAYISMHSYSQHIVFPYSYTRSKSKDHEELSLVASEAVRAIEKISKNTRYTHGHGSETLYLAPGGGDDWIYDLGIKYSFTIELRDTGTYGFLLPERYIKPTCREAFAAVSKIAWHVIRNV
Kind of assay: TAFIa inhibition, Actichrome plasma TAFI activity kit (American Diagnostica). The class given is biochemical. The conditions noted are these: 15 min preincubation at room temperature, read at 420 nm, duplicate determination of serial dilutions. How it is done: The enzymic reaction was started by adding 10 μl of TAFIa developer (prediluted 1:2 with assay buffer).
The IC50 values were calculated from the averaged values (duplicate determination) of serial dilutions of the substance with the aid of the Softmax Pro software (version 4.8; Molecular Devices).
One may read the IC50 as the concentration needed to halve the response being measured. The molecule `CC(C)[C@H](NC(=O)[C@@H](CCCCNC(=O)OCc1ccccc1)NC(=O)N[C@@H](CCCCN)C(=O)O)C(=O)NC1C[C@@H]2CC[C@H]1C2` (stereo partly drawn) [Example 115] showed an IC50 of 239 nM.
As for `CCOC(=O)[C@@H](NC(=O)[C@@H](NC(=O)[C@@H](CCCCNC(=O)OCc1ccccc1)NC(=O)N[C@@H](CCCCN)C(=O)O)C(C)C)C(C)C` [Example 118] ({Lys-CO}-[dK](Cbz)-Val-Val-OEt), the figure is 267 nM; as for `CC(C)[C@H](NC(=O)[C@@H](CCCCNC(=O)OCc1ccccc1)NC(=O)N[C@@H](CCCCN)C(=O)O)C(=O)N[C@@H](C)c1ccc(Cl)cc1` [Example 119], 1300 nM; as for `CC1CCCC(NC(=O)[C@@H](NC(=O)[C@@H](CCCCNC(=O)OCc2ccccc2)NC(=O)N[C@@H](CCCCN)C(=O)O)C(C)C)C1` (stereo partly drawn) [Example 120], 615 nM.
The result for `CC(C)[C@H](NC(=O)[C@@H](CCCCNC(=O)OCc1ccccc1)NC(=O)N[C@@H](CCCCN)C(=O)O)C(=O)NCC(C)(C)C` [Example 121] reads 370 nM; that for `CC(C)[C@H](NC(=O)[C@@H](CCCCNC(=O)OCc1ccccc1)NC(=O)N[C@@H](CCCCN)C(=O)O)C(=O)N[C@H](C)c1ccccc1` [Example 122], 525 nM; that for `CC1(C)[C@@H]2CC[C@@]1(C)[C@@H](NC(=O)[C@@H](CC1CCCCC1)NC(=O)N[C@@H](CCCN)C(=O)O)C2` [Example 124], 18 nM.
For `CC(C)[C@H](NC(=O)[C@@H](CCCCNC(=O)OCc1ccccc1)NC(=O)N[C@@H](CCCCN)C(=O)O)C(=O)NC(C)C(C)(C)C` (stereo partly drawn) [Example 126], the midpoint of inhibition, the IC50, lay at 204 nM.
As for `CC(C)[C@H](NC(=O)[C@@H](CCCCNC(=O)OCc1ccccc1)NC(=O)N[C@@H](CCCCN)C(=O)O)C(=O)N[C@@H]1C[C@H]1c1ccccc1` [Example 127], the figure is 693 nM; as for `CC1CCCCC1NC(=O)[C@@H](NC(=O)[C@@H](CCCCNC(=O)OCc1ccccc1)NC(=O)N[C@@H](CCCCN)C(=O)O)C(C)C` (stereo partly drawn) [Example 128], 391 nM.
In turn, `CC(C)[C@H](NC(=O)[C@@H](CCCCNC(=O)OCc1ccccc1)NC(=O)N[C@@H](CCCCN)C(=O)O)C(=O)NCc1ccc(Cl)cc1` [Example 129] came in with a half-maximal inhibitory concentration (IC50) of 608 nM.
As for `COC(=O)[C@H](Cc1ccc(O)cc1)NC(=O)[C@@H](NC(=O)[C@@H](CC1CCCCC1)NC(=O)N[C@@H](CCCCN)C(=O)O)C(C)C` [Example 133] ({Lys-CO}-[dCha]-Val-Tyr-OMe), the figure is 636 nM.
For `COC(=O)[C@H](Cc1c[nH]c2ccccc12)NC(=O)[C@@H](NC(=O)[C@@H](CCCCNC(=O)OCc1ccccc1)NC(=O)N[C@@H](CCCCN)C(=O)O)C(C)C` [Example 134] ({Lys-CO}-[dK](Cbz)-Val-Trp-OMe), the midpoint of inhibition, the IC50, lay at 532 nM.
As for `CC(C)C(NC(=O)[C@@H](CC1CCCCC1)NC(=O)N[C@@H](CCCCN)C(=O)O)C(=O)N[C@H](CO)Cc1ccccc1` (stereo partly drawn) [Example 135] ({Lys-CO}-[dCha]-[ξV]-[Phe(ol)]), the figure is 522 nM; as for `CC(C)[C@H](NC(=O)[C@@H](NC(=O)[C@@H](CC1CCCCC1)NC(=O)N[C@@H](CCCCN)C(=O)O)C(C)C)C(N)=O` [Example 137] ({Lys-CO}-[dCha]-Val-Val-NH2), 140 nM; as for `CC(C)C(NC(=O)C(NC(=O)[C@@H](CCCCNC(=O)OCc1ccccc1)NC(=O)N[C@@H](CCCNC(=N)N)C(=O)O)C(C)C)C(N)=O` (stereo partly drawn) [Example 139] ({Arg-CO}-[dK](Cbz)-[ξV]-[ξV]-NH2), 376 nM.
The molecule `CC(C)[C@H](NC(=O)[C@@H](NC(=O)[C@@H](CCCCNC(=O)OCc1ccccc1)NC(=O)N[C@@H](CCCCN)C(=O)O)C(C)C)C(N)=O` [Example 140] ({Lys-CO}-[dK](Cbz)-Val-Val-NH2) registered an IC50 of 318 nM.
The result for `CC[C@@H](C)[C@H](NC(=O)[C@@H](CCCCNC(=O)OCc1ccccc1)NC(=O)N[C@@H](CCCCN)C(=O)O)C(N)=O` [Example 142] reads 10600 nM; that for `CC1(C)[C@@H]2CC[C@@]1(C)[C@@H](NC(=O)[C@@H](CC1CCCCC1)NC(=O)N[C@@H](CSCCN)C(=O)O)C2` [Example 142a], 0.7 nM; that for `CC1(C)[C@@H]2CC[C@@]1(C)[C@@H](NC(=O)[C@@H](CC1CCCCC1)NC(=O)N[C@@H](CS(=O)(=O)CCN)C(=O)O)C2` [Example 142b], 6 nM.
The result for `COC(=O)[C@@H](NC(=O)[C@@H](NC(=O)[C@H](Cc1ccccc1)NS(=O)(=O)N[C@@H](CCCCN)C(=O)O)C(C)C)C(C)C` [Example 143, (S)-6-Amino-2-(3-{(S)-1-[(S)-1-((S)-1-methoxycarbonyl-2-methyl-propylcarbamoyl)-2-methyl-propylcarbamoyl]-2-phenyl-ethyl}-sulfamidyl)-hexanoic acid] reads 9760 nM.
As for `CC1(C)[C@@H]2CC[C@@]1(C)[C@@H](NC(=O)[C@H](CC1CCC1)NS(=O)(=O)N[C@@H](CCCCN)C(=O)O)C2` [Example 150], the figure is 357 nM; as for `CC(C)CNC(=O)[C@@H](NC(=O)[C@H](CC1CCCCC1)NS(=O)(=O)N[C@@H](CCCCN)C(=O)O)C(C)C` [Example 169], 770 nM; as for `CC(C)(C)OC(=O)[C@H](CCCCN)NS(=O)(=O)N[C@@H](CC1CCCCC1)C(=O)N[C@@H]1C[C@H]2CC[C@]1(C)C2(C)C` [Example 186], 22900 nM.
